We go through one compound from US6943190B2, “Method of using pyruvate and/or its derivatives for the treatment of cytokine-mediated inflammatory conditions” (University of Pittsburgh-of the Commonwealth System of …, priority 2001, dated 2005).

Structures are written as SMILES. Where two headings read alike, the source gives them in different places.

The subject of test [1] is TNF gene transcript. Briefly: TNF mRNA in LPS-stimulated RAW 264.7 cells (RNase protection assay). Format: cell-based, murine. The method, then: Cell Culture. BALB/c murine macrophage-like RAW 264.7 cells obtained from the American Type Culture Collection (ATCC Number TIB-71, ATCC, Rockville, Mass.) (61), were cultured in RPMI 1640 (Life Technologies, Grand Island, N.Y.) supplemented with 10% heat inactivated fetal bovine serum (Gemini, Calabasas, Calif.), 2 mM glutamine (Cat. # 25030-149, Gibco BRL, Rockville, Mass.) and antibiotic-antimycotic mix (Cat. # 15240-062, Gibco BRL, Rockville, Mass.) in a humidified incubator with 5% CO2. Cells were mechanically removed and resuspended in serum-free Opti-MEM I medium (Life Technology, Grand Island, N.Y.) to perform experiments at 75% confluence.
Total RNA extraction and RNase protection assay. […] The levels of TNF and cyclophilin mRNA in RAW cells were measured using an RNase protection assay kit from PharMingen in accordance with the manufacturer's instructions (San Diego, Calif.). […] Molecular weight markers were prepared using pBR-322 plasmid DNA digested with MSP I (New England Bio Labs, Beverly, Mass.) and Klenow end-labeled (Strategene, La Jolla, Calif.) with ^α-32P-dCTP (800 Ci/mmol, Amersham); mRNA levels were measured with an Instantlmager (Packard Instrument Co., Meriden, Conn.).
To determine the effect of ethyl pyruvate on TNF synthesis by macrophages, murine macrophage-like RAW 264.7 cells were stimulated with endotoxin, and TNF measured in the conditioned media. […]

For test [2], the system named is HMGB-1. Briefly: Serum HMGB-1 in endotoxemic mice (western blot). Format: in vivo, Balb/C mice. The settings on record: for serum HMGB1: pretreatment 40 mg/kg 30 min before LPS, measured 20 hours after onset of endotoxemia. How it is done: Endotoxin shock. Mice were injected with endotoxin (Escherichia coli lipopolysaccharide, LPS 0111:B4; Sigma Chemical Co, St. Louis, Mo.) that was dissolved in sterile pyrogen-free saline at stock concentrations of 10 mg/ml. LPS solutions were sonicated for 20 min immediately prior to use for each experiment. Mice received an LD75 dose of LPS (5 mg/kg, i.p.). Blood was collected at different times after LPS administration, allowed to clot for 2 h at room temperature, then centrifuged for 20 min at 1,500 g. Serum samples were stored at […] prior to analysis. Mortality was recorded for up to 3 weeks after injection to ensure that no additional late deaths occurred.
Cytokine measurements. TNF concentration in mouse serum and in conditioned media from RAW 264.7 cell cultures was measured by ELISA (minimum detectable concentration=10 pg/ml). Recombinant mouse TNF standards were obtained from R&D Systems (Inc., Minneapolis, Minn.) and dissolved in 0.1% bovine serum albumin solution (BSA, low endotoxin grade from Sigma Chemical Co., St. Louis, Mo.). Monoclonal antibody to mouse TNF was purchased from Biosource International, Inc., Camarillo, Calif. Human TNF monoclonal antibody, human TNF antiserum and mouse TNF antiserum were prepared and contributed by Dr. Christine Metz. Mouse serum IL-6 and IL-1β levels were measured using ELISA kits (R&D Systems, Inc., Minneapolis, Minn.). HMGB-1 was analyzed by western blot as previously described by Wang et al, 1999. […] Protein was electroblotting to Immun-blot PVDF membrane (Bio-rad, Hercules Calif.) and HMGB-1 was analyzed using polyclonal 241 antibody and secondary anti-rabbit horseradish peroxidase (Amersham, Pitscataway, N.J.). Standard curves were constructed using r-HMGB-1, and the intensity of the 30 kD band analyzed by densitometry. […]
The therapeutic efficacy of the delayed administration of ethyl pyruvate after the onset of endotoxemia was assessed. […]
(Immunoblotting shows a protein as a band on a membrane.)

Turning to `CCOC(=O)C(C)=O` [ethyl pyruvate], the “amount of TNF mRNA / TNF transcription” value in test [1] is recorded as “prevents LPS-induced transcription of TNF in an ethyl pyruvate concentration dependent fashion”; in test [1] (listed as Ethyl pyruvate), “significantly reduced the amount of TNF mRNA”. Moreover, the “systemic release of HMGB-1 (serum)” value in test [2] (delayed treatment beginning 4 hours post-LPS, measured at 20 hours) is “significantly attenuated the systemic release of HMGB-1”. In addition, the “serum HMGB1” value is “significantly attenuated” in test [2] and “significantly inhibits serum HMGB-1 levels” in test [2] (listed as Ethyl pyruvate).
